# Measurements taken from doi:10.1101/2024.03.17.584721v1 (bioRxiv, 2024).
# What was measured:
# [1] = In vivo biodistribution of LNP-encapsulated PepTACs; set-up: species or system SKH-1 hairless mice; conditions: Cy5.5-labeled, 5 mg/kg IV, confocal imaging of liver sections
# HeLa cells = test: Confocal imaging of subcellular localization; type: cell-based, human; conditions: free fluorescein-labelled peptide without LNP, 8 hours, live cell confocal
# [2] = Encapsulation efficiency of the LNPs; type: physicochemical; conditions: optimized LNP formulation, ^CRPepTAC or peptide ligand alone; Figure 4B
Substance,PepTAC signal in liver sections after 24 hours [1],uptake / subcellular localization (HeLa cells),"LNP Encapsulation Efficiency, % [2] [%]"
IYP^OHAL-Ahx-KDVLSEKEKKLEEYKQKLARV [^CRPepTAC],no signal,no uptake or cellular association,
KDVLSEKEKKLEEYKQKLARV [CL],,,15
